Two substances from US20180339024A1, “PEPTIDES WITH ANTI-ANGIOGENIC, ANTI-LYMPHANGIOGENIC, AND ANTI-EDEMIC PROPERTIES AND NANOPARTICLE FORMULATIONS” (Asclepix Therapeutics, LLC, priority 2015, published 2018) can be followed below.

“Also recorded” adds a separate entry of the source.

Data set [1] has as its target α5β1 integrin (Homo sapiens, UniProt P05556+P08648). The experiment in a line: Target identification of P07 (α5β1). The format is binding.
In data set [2] the test system is glioblastoma xenografts. The experiment in a line: Glioblastoma xenografts. The format is in vivo. The following applies: not shown.
For data set [3], the system named is insulin-like growth factor receptor (IGFR). The experiment in a line: P07 inhibition of IGF receptor signaling in microvascular endothelial cells. Type of data set: cell-based. The following applies: FIG. 1. From the text: (§1) Integrins function as co-receptors for many growth factor receptors such as VEGFR, hepatocyte growth factor receptor (HGFR or c-met), insulin-like growth factor receptor (IGFR), and platelet derived growth factor receptor (PDGFR).

For data set [4], the system named is hepatocyte growth factor receptor (HGFR or c-met). The experiment in a line: P07 inhibition of HGF receptor signaling in microvascular endothelial cells. Type of data set: cell-based. The conditions noted are these: FIG. 1.
Text: as §1

Data set [5] concerns orthotopic triple-negative breast cancer (TNBC) xenografts. The experiment in a line: Orthotopic triple-negative breast cancer xenografts. Type of data set: in vivo.
Data set [6] concerns rabbit eye, human VEGF induced leakage. The experiment in a line: VEGF induced vascular leakage (edema) model in the rabbit eye. The format is in vivo. The conditions noted are these: about 50 μg P07 in the eye prior to VEGF injection, fluorescein i.v. 3 days after VEGF, FIG. 3. How it is done:
P07 was also tested in a model of edema in the rabbit eye. In this model human VEGF was injected directly into the eye causing the local vasculature to be leaky. The extent of this leak was assessed by measuring the amount of fluorescence in the eye resulting from the leakage of sodium fluorescein administered intravenously 3 days after VEGF injection.

Data set [7] concerns vascular endothelial growth factor receptor (VEGFR). The experiment in a line: P07 inhibition of VEGF receptor signaling in microvascular endothelial cells. The conditions noted are these: FIG. 1. Type of data set: cell-based.
Text: as §1

Data set [8] concerns transgenic mouse over-expressing the human form of vascular endothelial growth factor (VEGF) in the retina. The experiment in a line: Vascular leakage and retinal detachment in transgenic mouse over-expressing human VEGF in the retina. Type of data set: in vivo. From the text: The vascular leakage in this model is so severe that the blood that pools behind the retina causes retinal detachment.

The test system of data set [9] is small cell lung cancer (SCLC) xenografts. The experiment in a line: Small cell lung cancer xenografts. The format is in vivo. The conditions noted are these: not shown.
The target in data set [10] is αVβ3 integrin (Homo sapiens, UniProt P05106+P06756). The experiment in a line: Target identification of P07 (αVβ3). The format is binding.
Data set [11] has as its system platelet derived growth factor receptor (PDGFR). The experiment in a line: P07 inhibition of PDGF receptor signaling. Type of data set: cell-based.
Text: as §1

Data set [12] relates to VEGF induced neovascularization and leakage. The experiment in a line: Mouse models of retinal and choroidal neovascularization and vascular leakage. Type of data set: in vivo.
A short description of data set [13]: Size characterization, Malvern Zetasizer Nano ZS90. Type of data set: physicochemical. The following applies: 1 mg/ml in water. How it is done:
N07 was suspended in water at 1 mg/ml and analyzed using a Malvern Zetasizer Nano ZS90. Z-average diameter and intensity-based size distribution were measured and recorded.

α5β1 integrin, sequence (P08648 42-894 limits assumed): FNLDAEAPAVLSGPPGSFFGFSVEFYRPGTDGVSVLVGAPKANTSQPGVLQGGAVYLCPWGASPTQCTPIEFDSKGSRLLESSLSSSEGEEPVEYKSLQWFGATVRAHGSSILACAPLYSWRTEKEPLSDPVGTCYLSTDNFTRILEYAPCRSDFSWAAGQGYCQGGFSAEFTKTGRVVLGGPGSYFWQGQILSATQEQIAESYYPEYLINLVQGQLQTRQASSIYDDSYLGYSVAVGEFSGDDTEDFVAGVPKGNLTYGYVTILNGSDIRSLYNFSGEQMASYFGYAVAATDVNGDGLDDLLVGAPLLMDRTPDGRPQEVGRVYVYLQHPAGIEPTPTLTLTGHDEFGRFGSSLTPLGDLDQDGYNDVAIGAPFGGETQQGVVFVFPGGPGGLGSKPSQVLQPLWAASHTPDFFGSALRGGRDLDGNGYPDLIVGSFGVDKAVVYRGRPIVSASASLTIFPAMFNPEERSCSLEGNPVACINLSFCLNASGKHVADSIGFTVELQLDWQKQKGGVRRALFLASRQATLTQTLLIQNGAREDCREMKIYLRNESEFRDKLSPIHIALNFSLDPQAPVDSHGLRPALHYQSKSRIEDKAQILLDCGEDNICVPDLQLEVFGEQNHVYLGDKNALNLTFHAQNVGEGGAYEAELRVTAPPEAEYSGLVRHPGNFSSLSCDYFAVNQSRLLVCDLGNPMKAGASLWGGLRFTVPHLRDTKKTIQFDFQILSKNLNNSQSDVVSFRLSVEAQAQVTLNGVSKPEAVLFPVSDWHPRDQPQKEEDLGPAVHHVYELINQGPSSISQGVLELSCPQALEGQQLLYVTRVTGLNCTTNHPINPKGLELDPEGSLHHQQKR
α5β1 integrin, sequence (P08648 895-1049 partner limits assumed): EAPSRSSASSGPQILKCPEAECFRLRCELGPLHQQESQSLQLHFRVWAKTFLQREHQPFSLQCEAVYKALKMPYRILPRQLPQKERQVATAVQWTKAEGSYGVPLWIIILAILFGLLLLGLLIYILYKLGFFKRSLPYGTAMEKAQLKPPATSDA
α5β1 integrin, sequence (P05556 21-798): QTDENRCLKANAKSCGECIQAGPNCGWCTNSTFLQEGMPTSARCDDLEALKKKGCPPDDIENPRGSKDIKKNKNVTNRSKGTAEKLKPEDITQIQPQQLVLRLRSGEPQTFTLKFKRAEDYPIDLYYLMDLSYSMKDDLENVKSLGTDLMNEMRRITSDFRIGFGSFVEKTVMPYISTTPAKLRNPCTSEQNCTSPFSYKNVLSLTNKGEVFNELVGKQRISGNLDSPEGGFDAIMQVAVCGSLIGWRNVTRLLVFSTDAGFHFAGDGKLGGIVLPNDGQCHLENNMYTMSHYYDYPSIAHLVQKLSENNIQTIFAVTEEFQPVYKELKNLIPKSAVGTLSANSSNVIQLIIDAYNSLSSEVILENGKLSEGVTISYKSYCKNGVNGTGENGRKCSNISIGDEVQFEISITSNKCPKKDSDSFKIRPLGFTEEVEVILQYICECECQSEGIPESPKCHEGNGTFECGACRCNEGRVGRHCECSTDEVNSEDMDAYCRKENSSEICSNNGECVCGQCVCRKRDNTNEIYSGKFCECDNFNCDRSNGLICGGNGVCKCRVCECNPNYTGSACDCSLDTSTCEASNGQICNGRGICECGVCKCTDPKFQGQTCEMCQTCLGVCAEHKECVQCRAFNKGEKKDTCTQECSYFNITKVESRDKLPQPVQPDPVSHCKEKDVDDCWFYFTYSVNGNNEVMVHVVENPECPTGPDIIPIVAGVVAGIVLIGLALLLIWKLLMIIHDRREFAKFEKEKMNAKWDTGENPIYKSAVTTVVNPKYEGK
αVβ3 integrin, sequence (P06756 31-889 limits assumed): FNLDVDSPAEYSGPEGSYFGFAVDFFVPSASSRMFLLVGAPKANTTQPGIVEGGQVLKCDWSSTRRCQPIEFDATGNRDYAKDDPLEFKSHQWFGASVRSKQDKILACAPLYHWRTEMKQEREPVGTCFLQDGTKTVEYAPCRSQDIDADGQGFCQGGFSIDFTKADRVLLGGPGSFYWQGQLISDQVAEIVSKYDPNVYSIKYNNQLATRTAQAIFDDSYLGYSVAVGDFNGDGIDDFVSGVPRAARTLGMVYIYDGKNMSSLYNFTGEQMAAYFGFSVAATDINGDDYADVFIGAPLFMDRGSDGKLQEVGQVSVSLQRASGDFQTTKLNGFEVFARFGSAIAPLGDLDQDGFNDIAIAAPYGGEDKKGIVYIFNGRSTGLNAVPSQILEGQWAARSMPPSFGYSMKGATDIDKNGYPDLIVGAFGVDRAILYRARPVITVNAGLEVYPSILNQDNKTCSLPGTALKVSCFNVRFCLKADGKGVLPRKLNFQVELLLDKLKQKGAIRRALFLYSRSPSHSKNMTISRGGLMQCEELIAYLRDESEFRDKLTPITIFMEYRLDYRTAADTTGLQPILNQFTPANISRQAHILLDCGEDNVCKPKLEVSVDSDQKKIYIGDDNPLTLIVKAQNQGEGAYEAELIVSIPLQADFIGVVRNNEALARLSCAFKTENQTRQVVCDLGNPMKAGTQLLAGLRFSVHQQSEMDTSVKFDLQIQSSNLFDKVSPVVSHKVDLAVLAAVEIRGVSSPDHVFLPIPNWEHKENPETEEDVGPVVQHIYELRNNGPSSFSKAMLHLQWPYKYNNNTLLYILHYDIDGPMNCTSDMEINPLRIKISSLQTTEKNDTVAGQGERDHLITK
αVβ3 integrin, sequence (P06756 891-1048 partner limits assumed): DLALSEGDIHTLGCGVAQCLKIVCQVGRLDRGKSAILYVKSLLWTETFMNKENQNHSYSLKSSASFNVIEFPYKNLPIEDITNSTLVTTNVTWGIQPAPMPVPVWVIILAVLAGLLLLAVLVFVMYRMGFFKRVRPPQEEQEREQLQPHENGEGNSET
αVβ3 integrin, sequence (P05106 27-788): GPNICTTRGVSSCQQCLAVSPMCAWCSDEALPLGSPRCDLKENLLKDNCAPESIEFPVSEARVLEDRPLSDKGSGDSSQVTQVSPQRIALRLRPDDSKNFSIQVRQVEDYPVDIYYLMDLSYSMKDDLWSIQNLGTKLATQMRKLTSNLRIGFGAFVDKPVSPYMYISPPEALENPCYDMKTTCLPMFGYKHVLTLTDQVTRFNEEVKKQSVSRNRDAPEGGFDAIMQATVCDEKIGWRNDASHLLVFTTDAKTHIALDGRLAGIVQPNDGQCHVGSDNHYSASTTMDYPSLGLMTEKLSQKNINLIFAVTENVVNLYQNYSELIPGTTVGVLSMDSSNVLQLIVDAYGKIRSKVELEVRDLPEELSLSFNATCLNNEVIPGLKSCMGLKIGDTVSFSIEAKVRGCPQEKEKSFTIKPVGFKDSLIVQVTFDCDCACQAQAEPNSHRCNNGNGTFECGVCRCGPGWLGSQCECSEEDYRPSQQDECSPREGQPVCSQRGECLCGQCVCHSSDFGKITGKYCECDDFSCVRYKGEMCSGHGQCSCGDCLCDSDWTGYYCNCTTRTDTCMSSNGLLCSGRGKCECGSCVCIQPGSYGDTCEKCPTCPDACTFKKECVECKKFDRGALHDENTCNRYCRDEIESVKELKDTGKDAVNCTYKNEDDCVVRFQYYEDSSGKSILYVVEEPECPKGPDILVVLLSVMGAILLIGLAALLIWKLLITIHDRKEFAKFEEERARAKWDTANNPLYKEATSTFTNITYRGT

In the case of LRRFSTAPFAFIDINDVINF [P07], the “identified target: α5β1 integrin” value in [1] was “identified to be the α5β1 and αVβ3 integrins”. The “growth of glioblastoma xenografts” value in [2] was “inhibits the growth”. Also, the “inhibition of signaling from IGFR” value in data set [3] was “inhibit signaling”. Also, the “inhibition of signaling from HGFR (c-met)” value in data set [4] is “inhibit signaling”. The “growth of orthotopic TNBC xenografts” value in [5] (FIG. 4) is given as “inhibits the growth; also recorded: dose dependent manner”. The “tumor vasculature / neovascularization in orthotopic TNBC xenografts” value in data set [5] (FIG. 5) was “dramatically diminished vasculature; also recorded: inhibits neovascularization”. Moreover, the “vascular leakage (sodium fluorescein fluorescence in the eye)” value in data set [6] is recorded as “dramatically inhibited”. In addition, the “inhibition of signaling from VEGFR” value in [7] is reported as “inhibit signaling”. Also, the vascular leakage entry in [8] is given as “inhibit vascular leakage”. Besides, the retinal detachment entry in [8] (FIG. 2) is “almost completely blocked retinal detachment”. In [9], the “growth of SCLC xenografts” value is “inhibits the growth”. The “identified target: αVβ3 integrin” value in data set [10] was “identified to be the α5β1 and αVβ3 integrins”. In addition, the “inhibition of signaling from PDGFR” value in data set [11] is given as “inhibit signaling”. Also, the “VEGF induced neovascularization and leakage” value in data set [12] was “strongly inhibits”.
“PLGA-PEG-P07: nanoparticles made completely of PLGA-PEG-P07 conjugated polymer (LRRFSTAPFAFIDINDVINF)”: in data set [13], the PDI was 0.29 and the Z-Average worked out at 77.59 ± 2.65 nm·days.
